Consider eight compounds from patent publication US6451814B1, “Heterocyclic β-3 adrenergic receptor agonists” (Wyeth, priority 2000, dated 2002).

Where two headings read alike, the source gives them in different places.

Data set [1] has as its target T1, human β3-adrenergic receptor (Homo sapiens, UniProt P13945).
T1 construct: Full length β3 AR clones (402 amino acids) containing the last 6 amino acids of hβ3—AR are prepared; expressed in transfected cells; host or cells: CHO cells
In words: cAMP response (SPA kit) in CHO cells transfected with human β3 adrenergic receptor. As to conditions: for EC50: CHO cells expressing human β3-AR, 10^-9 M to 10^-5 M, 30 min at 37° C., cAMP by SPA; for IA(β3): maximal response of compound compared to maximal response of isoproterenol at 10^-5 M, CHO cells, human β3-AR. Format: cell-based.

T1 sequence (P13945 whole entry): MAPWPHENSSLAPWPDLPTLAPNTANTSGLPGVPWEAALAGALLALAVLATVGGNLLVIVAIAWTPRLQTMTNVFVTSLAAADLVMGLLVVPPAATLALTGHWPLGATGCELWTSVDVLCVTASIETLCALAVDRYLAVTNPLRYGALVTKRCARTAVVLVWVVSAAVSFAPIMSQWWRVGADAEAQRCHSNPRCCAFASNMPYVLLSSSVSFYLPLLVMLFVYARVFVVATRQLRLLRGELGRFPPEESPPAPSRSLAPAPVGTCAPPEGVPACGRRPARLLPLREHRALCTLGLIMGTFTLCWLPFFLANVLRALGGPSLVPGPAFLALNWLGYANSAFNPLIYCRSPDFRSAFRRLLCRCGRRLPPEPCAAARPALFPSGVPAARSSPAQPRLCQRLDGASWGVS

Compound `CN(C)C(=O)Oc1ccc(CCNC(=O)N2CCC(Nc3ccc(CCNC[C@H](O)COc4ccc(O)cc4)cc3)CC2)cc1` [Example 74, Dimethyl-carbamic Acid 4-(2-{[4-(4-{2-[(2S)-2-hydroxy-3-(4-hydroxy-phenoxy)-propylamino]-ethyl}-phenylamino)-piperidine-1-carbonyl]-amino}-ethyl)-phenyl Ester] displayed a melting point of 86 to 88 °C. The midpoint of the response in data set [1] (EC50(β3, μM)), the EC50, lay at 0.045 µM. Besides, in data set [1], the “IA(β3)” value was 0.88.
As for `CCCCCCNC(=O)Nc1ccc(CNC(=O)N2CCC(Nc3ccc(CCNC[C@H](O)COc4ccc(O)cc4)cc3)CC2)cc1` [Example 67, 4-(4-{2-[(2S)-2-Hydroxy-3-(4-hydroxy-phenoxy)-propylamino]-ethyl}-phenylamino)-piperidine-1-carboxylic Acid 4-(3-hexyl-ureido)-benzylamide], the melting point was 141 to 143 °C. The EC50 in data set [1] (read-out: EC50(β3)) stood at 0.029 µM. Further, in data set [1], the “IA(β3)” value is reported as 0.92.
For `O=C(NCC1(c2ccccc2)CCCC1)N1CCC(Sc2ccc(CCNC[C@H](O)COc3ccc(O)cc3)cc2)CC1` [Example 43, 4-(4-{2-[(2S)-2-Hydroxy-3-(4-hydroxy-phenoxy)-propylamino]-ethyl}-phenylsulfanyl)-piperidine-1-carboxylic Acid (1-phenyl-cyclopentylmethyl)-amide], in that order: 132 °C, 0.39 µM and 0.81.
The corresponding values for `CCCCCCCCNC(=O)Nc1ccc(S(=O)(=O)N2CCC(Nc3ccc(CCNC[C@H](O)c4ccc(O)c(NS(C)(=O)=O)c4)cc3)CC2)cc1` [Example 116, N-(2-Hydroxy-5-{(1R)-1-hydroxy-2-[2-(4-{1-[4-(3-octyl-ureido)-benzenesulfonyl]-piperidin-4-ylamino}-phenyl)-ethylamino]-ethyl}-phenyl)-methanesulfonamide] are 134 to 136 °C, 0.001 µM and 1.1.
The corresponding values for `CCCCCCNC(=O)N1CCC(Sc2ccc(CCNC[C@H](O)COc3ccc(O)cc3)cc2)CC1` [Example 41, N-hexyl-4-{[4-(2-{[(2S)-2-hydroxy-3-(4-hydroxyphenoxy)propyl]amino}ethyl)phenyl]sulfanyl}-1-piperidinecarboxamide] are 181 to 195 °C, 0.62 µM and 0.84.
On to `O=C(Nc1ccccc1)N1CCC(Sc2ccc(CCNC[C@H](O)COc3ccc(O)cc3)cc2)CC1` [Example 40, 4-(4-{2-[(2S)-2-Hydroxy-3-(4-hydroxy-phenoxy)-propylamino]-ethyl}-phenylsulfanyl)-piperidine-1-carboxylic Acid Phenylamide], for which the melting point was 121 °C. In addition, in data set [1] (read-out: EC50(β3)), the EC50 is 0.101 µM. Further, the “IA(β3)” value in data set [1] amounted to 0.9.
For `COc1cc(OCCCOc2ccccc2)ccc1CCNC(=O)N1CCC(Nc2ccc(CCNC[C@H](O)COc3ccc(O)cc3)cc2)CC1` [Example 71, 4-(4-{2-[(2S)-2-Hydroxy-3-(4-hydroU-phenoxy)-propylamino]-ethyl}-phenylamino)-piperidine-1-carboxylic Acid {2-[2-methoxy-4-(3-phenoxy-propoxy)-phenyl]-ethyl}-amide], in that order: 67 to 69 °C, 0.14 µM and 0.94.
Consider `COc1ccc(CCCCNC(=O)N2CCC(Nc3ccc(CCNCC(O)COc4ccc(O)cc4)cc3)CC2)cc1OC` (centres unmarked) [Example 57, 4-(4-{2-[2-Hydroxy-3-(4-hydroxy-phenoxy)-propylamino]-ethyl}-phenylamino)-piperidine-1-carboxylic Acid [4-(3,4-dimethoxy-phenyl)-butyl]-amide], for which the melting point lay within 60 to 62 °C. The “IA(β3)” value in data set [1] is 0.94.

The term melting point denotes the temperature, or range, at which the solid turns liquid. Broadly, the EC50 is the concentration giving half of the maximal effect.
